Where “and” joins values, the source holds several entries; their conditions need not be identical. Equal values may be shown once. Read-outs that look alike come from different tables or passages of the source.
Legend:
Format in all cases: cell-based
[1] = system: HepG2 cells; test: MTT assay for cell proliferation and cytotoxicity, HepG2; parameters: key to Inhibitory rate: inhibition rate = 1 - mean A490 sample/mean A490 control (fraction)
Outline: (§1)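 Cells grown in DMEM with 10% FBS at 37 °C, 5% CO2, seeded at 10^5 cells/mL and exposed to KJ-5 or KJ-12 at 0–32 μM for 48 h. MTT added for 4 h, formazan dissolved in DMSO, A490 read; inhibition = (1 − sample/control A490) × 100%.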

[2] = system: HeLa cells; test: MTT assay for cell proliferation, HeLa; parameters: key to Inhibitory rate: inhibition rate = 1 - mean A490 sample/mean A490 control (fraction)
Outline: as §1

[3] = system: KYSE-30 cells; test: MTT assay for cell proliferation, KYSE-30; parameters: key to Inhibitory rate: inhibition rate = 1 - mean A490 sample/mean A490 control (fraction)
Outline: as §1

[4] = system: normal hepatic cells L02; test: MTT inhibition rate in normal hepatic cells L02; details: for Average OD / Inhibitory rate / ODtreated/ODcontrol: L02 cells, 3 repeat experiments; for Average OD: average of 5 wells; for Inhibitory rate / ODtreated/ODcontrol: fraction
[5] = system: HepG2 cells; test: DAPI staining for cell apoptosis (morphology); details: HepG2, 2, 4, 8 μM, 24 h
Experimental: Apoptotic morphological changes were determined by DAPI staining. HepG2 cells were seeded in a 48-well plate and treated with different concentrations of KJ-5 and KJ-12 (2, 4, and 8 μM) for 24 h. After 24 h, they were then washed with PBS and fixed with 4% paraformaldehyde for 20 min. Subsequently, they were then washed with PBS and treated with DAPI (10 μg/mL) at 37°C for 5 min. After washing with PBS, the cells were resuspended in PBS for the rest of the experiment. A fluorescence microscope was used to observe the apoptotic morphological changes.

[6] = system: Bcl-2, Bax, cleaved caspase-9, cleaved caspase-3, cleaved PARP in HepG2 cells; test: Western blot of mitochondrial apoptotic proteins
Experimental: After being pretreated with either KJ-5 or KJ-12 at concentrations of 2, 4, or 8 μM for 24 h, the cells were harvested and lysed using an ice-cold cell lysis buffer from Beyotime Biotechnology (Shanghai, China). The proteins were mixed with a loading buffer and denatured by heating at 95°C–100°C for 5–10 min. Equal amounts of protein were loaded onto a 10% SDS-PAGE gel along with a molecular weight marker and separated by electrophoresis for 2 h. The separated proteins were transferred onto a PVDF membrane, which was blocked with 5% non-fat milk for non-specific binding sites on the membrane. Then, the membrane was incubated with primary antibodies at 4°C overnight. Following incubation with the primary antibody, the membrane was incubated with HRP-conjugated goat anti-rabbit or goat anti-mouse IgG at 37°C for 1 h. Protein bands were visualized on the PVDF membrane using an ECL hypersensitive chemiluminescence solution and a Bio-Rad gel imaging and analysis system.

[7] = HepG2, fraction, per experiment

COc1c2n(cc(C(=O)Nc3cccc(-c4cn(-c5c(C)cc(C)cc5C)nn4)c3)c1=O)C[C@H]1OC[C@H](C)N1C2=O [KJ-12] was tested, and the Inhibitory rate [1, 7] was 0.742 and 0.7786 and 0.787, the ODtreated/ODcontrol [1, 7] was 0.258 and 0.2214 and 0.213 and the inhibition at 4 µM ([1]; Homo sapiens, HepG2, liver cancer cells, 4 μM, read-out: Inhibition rate on liver cancer cells) was ~50%. The IC50 ([1]; Homo sapiens, HepG2, 48 h, MTT) was 4.07 ± 0.09 µM, the inhibition at 16 µM ([1]; Homo sapiens, preliminary screening, HepG2, 16 μM, 48 h, mean±SD, unit inferred, read-out: Inhibition rate (16μM), 48 h, HepG2) was 76.9 ± 2.4% and the Inhibitory rate ([2]; Hela, group 1 (concentration), fraction, single experiments) was 0.2971 and 0.2883 and 0.2551. The ODtreated/ODcontrol ([2]; Hela, group 1 (concentration), single experiments) was 0.7029 and 0.7117 and 0.7449, the Inhibitory rate ([2]; Hela, group 2 (concentration), fraction, single experiments) was 0.3155 and 0.3221 and 0.3198 and the ODtreated/ODcontrol ([2]; Hela, group 2 (concentration), single experiments) was 0.6845 and 0.6779 and 0.6802. For the same compound, the Inhibitory rate ([2]; Hela, group 4 (concentration), fraction, single experiments) was 0.3594 and 0.3533 and 0.3688, the ODtreated/ODcontrol ([2]; Hela, group 4 (concentration), single experiments) was 0.6406 and 0.6467 and 0.6312 and the Inhibitory rate ([2]; Hela, group 8 (concentration), fraction, single experiments) was 0.7153 and 0.627 and 0.5661. For the same compound, the ODtreated/ODcontrol ([2]; Hela, group 8 (concentration), single experiments) was 0.2847 and 0.373 and 0.4339, the Inhibitory rate ([2]; Hela, group 16 (concentration), fraction, single experiments) was 0.7226 and 0.7292 and 0.7302 and the ODtreated/ODcontrol ([2]; Hela, group 16 (concentration), single experiments) was 0.2774 and 0.2708 and 0.2698. For the same compound, the Inhibitory rate ([2]; Hela, group 32 (concentration), fraction, single experiments) was 0.7312 and 0.7755 and 0.8162, the ODtreated/ODcontrol ([2]; Hela, group 32 (concentration), single experiments) was 0.2688 and 0.2245 and 0.1838 and the IC50 ([2]; Hela, one of three experiments, unit inferred, read-out: IC50, single experiment, Hela) was 5.49 µM and 4.82 µM. For the same compound, the Inhibitory rate ([2]; Hela, fraction, per experiment) was 0.7218 and 0.7353 and 0.6986, the ODtreated/ODcontrol ([2]; Hela, fraction, per experiment) was 0.2782 and 0.2647 and 0.3014 and the IC50 ([2]; Homo sapiens, HeLa, 48 h, HeLa, 48 h, MTT, read-out: IC50 HeLa) was 5.17 ± 0.34 µM. For the same compound, the IC50 ([2]; Homo sapiens, HeLa, one of three experiments, unit inferred, read-out: IC50, single experiment, Hela) was 5.19 µM, the inhibition at 16 µM ([2]; Homo sapiens, preliminary screening, Hela, 16 μM, 48 h, mean±SD, unit inferred, read-out: Inhibition rate (16μM), 48 h, Hela) was 71.9 ± 1.86% and the IC50 ([3]; Homo sapiens, KYSE-30, 48 h, MTT, read-out: IC50 KYSE-30) was 11.7 ± 0.21 µM. The IC50 ([3]; Homo sapiens, KYSE-30, KYSE-30, one of three experiments, unit inferred, read-out: IC50, single experiment, KYSE-30) was 11.8 µM, the inhibition at 16 µM ([3]; Homo sapiens, preliminary screening, KYSE-30, 16 μM, 48 h, mean±SD, unit inferred, read-out: Inhibition rate (16μM), 48 h, KYSE-30) was 56.1 ± 4.59% and the ODtreated/ODcontrol ([3]; KYSE-30, first of three experiments) was 0.4595. For the same compound, the Inhibitory rate ([3]; KYSE-30, given as fraction, first of three experiments) was 0.5405, the Inhibitory rate ([3]; KYSE-30, given as fraction, second of three experiments) was 0.5295 and the Inhibitory rate ([3]; KYSE-30, given as fraction, third of three experiments) was 0.614. The Inhibitory rate ([3]; KYSE-30, group 1 (concentration), fraction, single experiments) was 0.1337 and 0.126 and 0.1387, the ODtreated/ODcontrol ([3]; KYSE-30, group 1 (concentration), single experiments) was 0.8663 and 0.874 and 0.8613 and the Inhibitory rate ([3]; KYSE-30, group 2 (concentration), fraction, single experiments) was 0.1741 and 0.1797 and 0.2087. The ODtreated/ODcontrol ([3]; KYSE-30, group 2 (concentration), single experiments) was 0.8259 and 0.8203 and 0.7913, the Inhibitory rate ([3]; KYSE-30, group 4 (concentration), fraction, single experiments) was 0.2947 and 0.287 and 0.2904 and the ODtreated/ODcontrol ([3]; KYSE-30, group 4 (concentration), single experiments) was 0.7053 and 0.713 and 0.7096. For the same compound, the Inhibitory rate ([3]; KYSE-30, group 8 (concentration), fraction, single experiments) was 0.4545 and 0.4401 and 0.4294, the ODtreated/ODcontrol ([3]; KYSE-30, group 8 (concentration), single experiments) was 0.5455 and 0.5599 and 0.5706 and the Inhibitory rate ([3]; KYSE-30, group 16 (concentration), fraction, single experiments) was 0.517 and 0.5136 and 0.5274. For the same compound, the ODtreated/ODcontrol ([3]; KYSE-30, group 16 (concentration), single experiments) was 0.483 and 0.4864 and 0.4726, the Inhibitory rate ([3]; KYSE-30, group 32 (concentration), fraction, single experiments) was 0.7126 and 0.7246 and 0.731 and the ODtreated/ODcontrol ([3]; KYSE-30, group 32 (concentration), single experiments) was 0.2874 and 0.2754 and 0.269. For the same compound, the IC50 ([3]; KYSE-30, one of three experiments, unit inferred, read-out: IC50, single experiment, KYSE-30) was 11.9 µM and 11.5 µM, the ODtreated/ODcontrol ([3]; KYSE-30, second of three experiments) was 0.4705 and the ODtreated/ODcontrol ([3]; KYSE-30, third of three experiments) was 0.386. The inhibition at 1 µM ([4]; Homo sapiens, L02, 48 h, L02, 1 μM, 48 h) was 10.8 ± 0.95%, the inhibition at 2 µM ([4]; Homo sapiens, L02, 48 h, L02, 2 μM, 48 h) was 13.6 ± 0.75% and the inhibition at 4 µM ([4]; Homo sapiens, L02, 48 h, L02, 4 μM, 48 h) was < 20%. For the same compound, the inhibition at 8 µM ([4]; Homo sapiens, L02, 48 h, L02, 8 μM, 48 h) was 22.3 ± 2.93%, the inhibition at 16 µM ([4]; Homo sapiens, L02, 48 h, L02, 16 μM, 48 h) was 30.5 ± 1.2% and the “Average OD” value ([4]; Group 1) was 1.123 and 1.0994 and 0.8196. For the same compound, the Inhibitory rate ([4]; Group 1) was 0.1145 and 0.1117 and 0.09678, the ODtreated/ODcontrol ([4]; Group 1) was 0.8855 and 0.8883 and 0.9032 and the “Average OD” value ([4]; Group 2) was 1.1022 and 1.0518 and 0.793. For the same compound, the Inhibitory rate ([4]; Group 2) was 0.1433 and 0.1281 and 0.1359, the ODtreated/ODcontrol ([4]; Group 2) was 0.8567 and 0.8719 and 0.8641 and the “Average OD” value ([4]; Group 4) was 1.0412 and 1.0106 and 0.783. The Inhibitory rate ([4]; Group 4) was 0.1541 and 0.1764 and 0.1697, the ODtreated/ODcontrol ([4]; Group 4) was 0.8459 and 0.8236 and 0.8303 and the “Average OD” value ([4]; Group 8) was 1.0104 and 0.9056 and 0.7302. The Inhibitory rate ([4]; Group 8) was 0.2111 and 0.2008 and 0.256, the ODtreated/ODcontrol ([4]; Group 8) was 0.7889 and 0.7992 and 0.744 and the “Average OD” value ([4]; Group 16) was 0.8912 and 0.8512 and 0.6312. The Inhibitory rate ([4]; Group 16) was 0.3181 and 0.295 and 0.3007, the ODtreated/ODcontrol ([4]; Group 16) was 0.6819 and 0.705 and 0.6993 and the “Average OD” value ([4]; Group 32) was 0.7446 and 0.6962 and 0.5126. The Inhibitory rate ([4]; Group 32) was 0.4462 and 0.411 and 0.428, the ODtreated/ODcontrol ([4]; Group 32) was 0.5538 and 0.589 and 0.572 and the “Apoptotic morphological changes, DAPI staining” value [5] was “cell shrinkage, nuclear condensation, and chromatin fragmentation”. The Bax levels ([6]; HepG2, 2, 4 or 8 μM, 24 h) was “increased”, the Bax/Bcl-2 ratio ([6]; HepG2, 2, 4 or 8 μM, 24 h) was “increased” and the Bcl-2 protein levels ([6]; HepG2, 2, 4 or 8 μM, 24 h) was “decreased”. For the same compound, the “Expression of cleaved PARP” value ([6]; HepG2, vs control) was “significant increase”, the “Expression of cleaved caspase-3” value ([6]; HepG2, vs control) was “significant increase” and the “Expression of cleaved caspase-9” value ([6]; HepG2, vs control) was “significant increase”.
